Results as given in patent US20260345803A1, “An Integrin Alpha10 Antibody Drug Conjugate” (Targinta AB, priority 2022, published 2026).
Where a chain is given by its changes, count along the chain named. Values belong to the molecule of their own block, whether it stands above or below them.

Key:
Hs578T = experiment: In vitro cytotoxicity (WST-1), Hs578T; format: cell-based; conditions: spheres, 10 days
Experimental: (§1) • Aim: To evaluate the in vitro efficacy of Th-Ab12-ADC in different cell lines. Material and Methods: Cells were seeded either as monolayer (C2C12alpha10, C2C12alpha11 and A204) or as spheres (BT549, Hs578T, U3046MG, U3054MG and SJSA-1) and treated with the IgG1 isotype control Ctrl-ADC or Th-Ab12-ADC at different concentrations ([…]) for 5 days (C2C12alpha10, C2C12alpha11, A204 and SJSA-1) or 10 days (BT549, Hs578T, U3046MG and U3054MG). On the day of termination, the cells were incubated for 3-4 hours with WST-1, which measures the viable cells, and the plates were read at OD450 nm wavelength via SpectraMax. The dose response curves and IC50 values were generated in GraphPad Prism 9. The WST-1 assay is based on the cleavage of tetrazolium salt WST-1 for formazan by cellular mitochondrial dehydrogenases. […] The differences in IC50 values between control ADC and Th-Ab12-ADC supports a relatively large therapeutic window for each cell line (Table 3).

C2C12alpha10 = experiment: In vitro cytotoxicity (WST-1), C2C12alpha10; format: cell-based, mouse; conditions: monolayer, 5 days
Experimental: as §1

U3046MG = experiment: In vitro cytotoxicity (WST-1), U3046MG; format: cell-based, human; conditions: spheres, 10 days
Experimental: as §1

C2C12alpha11 = experiment: In vitro cytotoxicity (WST-1), C2C12alpha11; format: cell-based, mouse; conditions: monolayer, 5 days
Experimental: as §1

U3054MG = experiment: In vitro cytotoxicity (WST-1), U3054MG; format: cell-based, human; conditions: spheres, 10 days
Experimental: as §1

SJSA-1 = experiment: In vitro cytotoxicity (WST-1), SJSA-1; format: cell-based; conditions: spheres, 5 days
Experimental: as §1

A204 = experiment: In vitro cytotoxicity (WST-1), A204; format: cell-based; conditions: monolayer, 5 days
Experimental: as §1

BT549 = experiment: In vitro cytotoxicity (WST-1), BT549; format: cell-based; conditions: spheres, 10 days
Experimental: as §1

[1] = molecular target: T1, integrin alpha11 (C2C12alpha11 cells) (human, UniProt Q9UKX5); experiment: FACS, C2C12alpha11 cells
T1 chain: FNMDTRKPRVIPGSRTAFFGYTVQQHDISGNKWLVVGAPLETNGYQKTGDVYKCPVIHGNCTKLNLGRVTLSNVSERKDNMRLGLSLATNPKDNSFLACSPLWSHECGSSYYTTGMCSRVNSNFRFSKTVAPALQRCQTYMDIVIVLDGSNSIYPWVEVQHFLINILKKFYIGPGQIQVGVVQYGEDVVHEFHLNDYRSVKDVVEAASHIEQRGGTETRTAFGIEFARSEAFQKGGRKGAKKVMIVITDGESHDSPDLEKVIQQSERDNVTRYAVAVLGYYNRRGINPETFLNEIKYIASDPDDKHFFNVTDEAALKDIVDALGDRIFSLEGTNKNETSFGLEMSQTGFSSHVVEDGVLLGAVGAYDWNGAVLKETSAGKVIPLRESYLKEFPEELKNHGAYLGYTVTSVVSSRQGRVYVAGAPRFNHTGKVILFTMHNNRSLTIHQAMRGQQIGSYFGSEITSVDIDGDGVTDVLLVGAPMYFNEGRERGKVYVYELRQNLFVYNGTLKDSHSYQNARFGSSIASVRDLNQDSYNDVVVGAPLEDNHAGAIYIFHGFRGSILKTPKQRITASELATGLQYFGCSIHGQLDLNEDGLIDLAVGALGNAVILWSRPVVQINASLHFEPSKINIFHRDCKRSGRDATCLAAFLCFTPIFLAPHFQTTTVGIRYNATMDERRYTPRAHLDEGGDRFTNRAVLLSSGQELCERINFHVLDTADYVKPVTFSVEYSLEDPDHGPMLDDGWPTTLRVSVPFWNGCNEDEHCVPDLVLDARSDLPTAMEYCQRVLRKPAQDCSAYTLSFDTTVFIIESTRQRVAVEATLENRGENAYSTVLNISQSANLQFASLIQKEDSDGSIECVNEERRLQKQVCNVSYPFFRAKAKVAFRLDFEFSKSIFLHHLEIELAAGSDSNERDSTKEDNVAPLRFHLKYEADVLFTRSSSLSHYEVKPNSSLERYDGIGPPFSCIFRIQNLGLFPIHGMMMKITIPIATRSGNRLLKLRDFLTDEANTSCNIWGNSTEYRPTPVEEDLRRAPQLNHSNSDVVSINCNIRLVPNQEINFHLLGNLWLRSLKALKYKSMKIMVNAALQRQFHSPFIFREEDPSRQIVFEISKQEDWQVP

[2] = molecular target: T2, integrin alpha10 (alpha10beta1, cell-expressed) (human, UniProt O75578); experiment: FACS, lower end of range 0.9-2.69 nM over seven cell lines
T2 chain: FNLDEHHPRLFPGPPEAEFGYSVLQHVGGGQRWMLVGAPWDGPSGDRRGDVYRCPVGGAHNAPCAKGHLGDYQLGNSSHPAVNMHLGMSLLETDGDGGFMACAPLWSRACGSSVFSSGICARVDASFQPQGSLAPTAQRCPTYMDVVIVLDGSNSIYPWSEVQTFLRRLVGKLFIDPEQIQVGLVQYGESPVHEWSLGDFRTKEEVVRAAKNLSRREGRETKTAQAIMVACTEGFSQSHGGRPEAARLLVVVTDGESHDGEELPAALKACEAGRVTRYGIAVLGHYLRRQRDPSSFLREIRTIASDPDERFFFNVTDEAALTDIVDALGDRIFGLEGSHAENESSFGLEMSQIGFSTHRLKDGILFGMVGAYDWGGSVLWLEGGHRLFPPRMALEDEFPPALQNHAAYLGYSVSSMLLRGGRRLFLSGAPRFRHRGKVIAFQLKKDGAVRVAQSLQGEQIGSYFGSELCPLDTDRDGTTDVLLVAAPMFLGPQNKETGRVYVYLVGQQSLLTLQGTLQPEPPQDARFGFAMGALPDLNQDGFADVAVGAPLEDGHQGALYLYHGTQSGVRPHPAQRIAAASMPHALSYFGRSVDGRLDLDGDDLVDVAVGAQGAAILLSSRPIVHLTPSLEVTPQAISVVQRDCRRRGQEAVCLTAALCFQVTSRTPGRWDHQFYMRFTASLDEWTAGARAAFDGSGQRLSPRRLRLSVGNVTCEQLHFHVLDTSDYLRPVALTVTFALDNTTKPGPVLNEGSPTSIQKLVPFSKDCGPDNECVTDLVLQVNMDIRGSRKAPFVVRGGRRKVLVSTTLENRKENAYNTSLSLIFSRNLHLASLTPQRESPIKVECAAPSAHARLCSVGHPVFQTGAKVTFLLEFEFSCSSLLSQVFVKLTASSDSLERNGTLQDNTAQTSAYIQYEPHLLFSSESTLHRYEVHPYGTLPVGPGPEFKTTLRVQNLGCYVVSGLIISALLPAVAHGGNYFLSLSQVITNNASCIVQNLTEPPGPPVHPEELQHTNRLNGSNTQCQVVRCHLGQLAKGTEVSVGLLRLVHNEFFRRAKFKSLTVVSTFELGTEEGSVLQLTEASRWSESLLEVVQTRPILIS

[3] = molecular target: T2, integrin alpha10 (alpha10beta1, …); experiment: FACS, upper end of range 0.9-2.69 nM over seven cell lines

- binding result [1]: no binding
B4: Th-Ab11 (antibody, V domains shown)
VH: QVQLVQSGAEVKKPGASVKVSCKTSGYTFTEYYIIWVRQAPGQGLEWLGWIFPGSGRTYYSEKFRGRVTITADKSTSTAYMELSSLRSEDTAVYYCARDNYGSSGKFFAYWGQGTLVTVSS
VL: DVVMTQSPLSLPVTLGQPASISCRSSQSLVHSNGNTYLHWYQQKPGQPPKLLIYKVSNRFSGVPDRFSGSGSGTDFTLKISRVEAEDVGVYFCSQSTHVPYTFGQGTKLEIK

- binding result [1]: no binding
B5: Th-Ab9 (antibody, V domains shown)
VH: B4 VH with V68A, A72V
VL: B4 VL with F92Y

- binding result [1]: no binding
B6: Th-Ab12 (antibody, V domains shown)
VH: B4 VH
VL: B4 VL with F92Y

The remaining lines, values behind:

Molecule: COc1cccc2c1C(=O)c1c(O)c3c(c(O)c1C2=O)CC(O)(C(=O)CO)CC3OC1CC2C(OC3C(OC)OCCN23)C(C)O1 [PNU-159682, 3′-deamino-3″-4′-anhydro-[2″(S)-methoxy-3″(R)-hydroxy-4″-morpholinyl]doxorubicin]
- IC50 (Hs578T): 0.981 nM
- IC50 (C2C12alpha10): 0.027 nM
- IC50 (U3046MG): 0.077 nM
- IC50 (C2C12alpha11): 0.018 nM
- IC50 (U3054MG): 0.145 nM
- IC50 (SJSA-1): 0.077 nM
- IC50 (A204): 0.023 nM
- IC50 (BT549): 1.4 nM

B1: Th-Ab15 (antibody, V domains shown)
VH: B4 VH with I34V, V68A, A72V
VL: B4 VL with F92Y
- binding result [1]: no binding

B2: Th-Ab14 (antibody, V domains shown)
VH: B4 VH with I34V, V68A, A72V
VL: B4 VL
- binding result [1]: no binding

B3: Th-Ab12-ADC (antibody, V domains shown)
VH: B4 VH
VL: B4 VL with F92Y
modifications: ADC, conjugated to PNU-159682-type payload; constant regions SEQ21 (heavy) and SEQ20 (light)
- EC50 [2]: > 0.9 nM
- binding result [1]: no binding
- EC50 [3]: < 2.69 nM
